Experimental data: paper PMC6320288 (Neuroscience letters, 2018)

Tests used:
rat P2X3R = molecular target: T1, rat P2X3R (Rattus norvegicus, UniProt P49654); assay: whole-cell patch clamp in transfected HEK293 cells; type: cell-based; settings: HEK293, read-out: % inhibition at 10 μM
T1 sequence (P49654 1-397): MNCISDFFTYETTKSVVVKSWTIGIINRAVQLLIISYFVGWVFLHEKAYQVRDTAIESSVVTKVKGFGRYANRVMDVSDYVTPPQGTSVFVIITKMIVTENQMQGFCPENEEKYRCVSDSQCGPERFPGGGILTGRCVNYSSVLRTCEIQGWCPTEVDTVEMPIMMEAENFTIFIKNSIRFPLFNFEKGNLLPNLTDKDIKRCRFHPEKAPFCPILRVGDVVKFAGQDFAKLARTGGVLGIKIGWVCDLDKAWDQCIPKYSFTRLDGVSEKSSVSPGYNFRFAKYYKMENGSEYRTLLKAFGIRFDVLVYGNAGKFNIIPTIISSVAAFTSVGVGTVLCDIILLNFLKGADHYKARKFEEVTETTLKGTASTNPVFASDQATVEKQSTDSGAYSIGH

rat P2X4R (rP2X4R) = molecular target: T2, rat P2X4R (rP2X4R) (Rattus norvegicus, UniProt P51577); assay: cell-based
T2 sequence (P51577 1-388): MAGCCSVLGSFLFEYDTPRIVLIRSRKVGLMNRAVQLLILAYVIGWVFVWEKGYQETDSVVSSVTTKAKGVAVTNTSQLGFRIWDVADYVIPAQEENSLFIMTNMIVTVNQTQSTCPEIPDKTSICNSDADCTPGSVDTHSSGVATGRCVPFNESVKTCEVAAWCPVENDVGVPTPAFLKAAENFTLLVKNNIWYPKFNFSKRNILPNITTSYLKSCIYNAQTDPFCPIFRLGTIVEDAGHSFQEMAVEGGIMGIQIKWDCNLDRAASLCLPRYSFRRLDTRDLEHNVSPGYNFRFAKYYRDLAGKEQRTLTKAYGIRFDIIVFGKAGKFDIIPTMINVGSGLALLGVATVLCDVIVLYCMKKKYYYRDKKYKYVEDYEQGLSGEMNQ

## O=C1CN=C(c2cccc(Br)c2)c2oc3ccccc3c2N1 [5-BDBD, 5-(3-bromophenyl)-1,3-dihydro-2H-benzofuro[3,2-e]-1,4-diazepin-2-one]
Rat P2X3R
  inhibition at 10 µM: 35.9 ± 10.1%

## Nc1ncnc2c1ncn2[C@@H]1O[C@H](COP(=O)(O)OP(=O)(O)OP(=O)(O)O)[C@@H](O)[C@H]1O [ATP]
Rat P2X4R (rP2X4R)
  EC50: 4.7 ± 1.8 µM
